For 27 molecules, IC50 results are on record in patent US11524966B1 (Valo Early Discovery, Inc., priority 2017, dated 2022).

Where only a bound is given, the exact number is not on record here.

For the assay, the target named is T1, USP28 (His-tagged USP28-FL-mammalian) (Homo sapiens, UniProt Q96RU2).
T1 construct: Expression of USP28 (1-1077)-TEV-6*His (pTT5 vector); made in house; host or cells: Expi293f cells (pTT5 vector)
T1 sequence (Q96RU2 1-1077): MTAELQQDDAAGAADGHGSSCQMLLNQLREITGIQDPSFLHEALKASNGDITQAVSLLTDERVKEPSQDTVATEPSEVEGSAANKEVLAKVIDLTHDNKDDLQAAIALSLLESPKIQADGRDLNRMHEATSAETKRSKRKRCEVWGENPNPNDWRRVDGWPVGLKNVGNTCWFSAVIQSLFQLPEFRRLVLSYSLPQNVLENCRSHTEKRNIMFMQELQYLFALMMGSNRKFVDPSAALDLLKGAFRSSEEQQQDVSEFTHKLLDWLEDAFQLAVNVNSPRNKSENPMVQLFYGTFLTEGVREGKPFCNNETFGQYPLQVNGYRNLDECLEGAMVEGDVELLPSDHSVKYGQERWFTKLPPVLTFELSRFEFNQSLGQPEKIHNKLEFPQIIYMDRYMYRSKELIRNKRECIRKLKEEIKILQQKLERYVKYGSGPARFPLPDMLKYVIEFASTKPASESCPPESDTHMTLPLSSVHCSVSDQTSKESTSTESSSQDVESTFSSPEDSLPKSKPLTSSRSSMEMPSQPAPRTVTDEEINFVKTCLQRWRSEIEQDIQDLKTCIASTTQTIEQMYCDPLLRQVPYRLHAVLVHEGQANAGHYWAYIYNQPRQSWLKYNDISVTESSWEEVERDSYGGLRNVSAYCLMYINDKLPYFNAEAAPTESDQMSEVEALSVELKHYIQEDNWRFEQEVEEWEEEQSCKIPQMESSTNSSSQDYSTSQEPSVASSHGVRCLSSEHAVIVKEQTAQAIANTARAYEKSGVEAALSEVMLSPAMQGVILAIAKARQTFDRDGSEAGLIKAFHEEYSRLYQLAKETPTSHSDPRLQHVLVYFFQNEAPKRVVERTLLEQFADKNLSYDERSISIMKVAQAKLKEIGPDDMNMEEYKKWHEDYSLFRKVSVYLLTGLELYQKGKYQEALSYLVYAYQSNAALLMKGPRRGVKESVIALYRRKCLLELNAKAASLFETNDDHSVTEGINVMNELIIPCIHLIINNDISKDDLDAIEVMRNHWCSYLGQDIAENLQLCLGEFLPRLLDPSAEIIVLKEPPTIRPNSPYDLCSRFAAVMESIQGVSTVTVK
As to the kind of experiment: Ubiquitin-Rhodamine 110 Assay for USP28 Activity, Example A-1(a). To be noted: Ubiquitin-Rhodamine 110 assay, Example A-1(a); read-out: USP28 A-1(a) IC50 range. It is filed as biochemical. Summed up:
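Full-length His-tagged human USP28 (1-1077, Expi293f-expressed), […], with 25 nM Ub-Rh110 (<<Km) in pH 8.0 Tris buffer with BME, BGG, Triton X-100. 10-point dilutions (25 μM-1.3 nM), 45 min at room temperature, citric acid stop, fluorescence 485/535 nm; IC50 by 4-parameter fit.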
With `CCn1ccc2cc(C(=O)N[C@H]3COc4c(F)c([C@H]5CCNC[C@H]5O)cc(F)c4C3)nnc21` [Example 85, N-((R)-5,8-difluoro-7-((3S,4R)-3-hydroxypiperidin-4-yl)chroman-3-yl)-7-ethyl-7H-pyrrolo[2,3-c]pyridazine-3-carboxamide], the IC50 – broadly, the concentration that inhibits the measured activity by half – lay in the range of 200 to 2000 nM. In the case of `CCc1cnc2sc(C(=O)N[C@@H]3COc4cc(N5CCNCC5)ccc4C3)c(N)c2n1` [Example 37, (S)-7-amino-2-ethyl-N-(7-(piperazin-1-yl)chroman-3-yl)thieno[2,3-b]pyrazine-6-carboxamide] it was greater than 2000 nM; in that of `Cc1ccc2c(N)c(C(=O)N[C@H]3CCc4nc(N5CCN[C@H](C)C5)ccc4C3)sc2n1` (single isomer, unassigned) [Example 23-16], 1 to 50 nM.

Turning to `Cc1ccc2c(N)c(C(=O)N[C@@H]3CCc4nc(N5CCNCC5)ccc4C3)sc2n1` (single isomer, unassigned) [Example 23-8], the half-inhibitory concentration (IC50) lay in the range of 50 to 200 nM. Turning to `Cc1ccc2c(N)c(C(=O)N[C@H]3COc4c(F)c(N5CC6CNCC(C5)O6)cc(F)c4C3)sc2n1` [Example 78, N-((3R)-7-(9-oxa-3,7-diazabicyclo[3.3.1]nonan-3-yl)-5,8-difluorochroman-3-yl)-3-amino-6-methylthieno[2,3-b]pyridine-2-carboxamide], the half-maximal inhibitory concentration (IC50) was in the range of 1 to 50 nM. For the molecule `CO[C@H]1CN(c2ccc3c(c2F)OC[C@H](NC(=O)c2sc4nc(C)ccc4c2N)C3)C[C@@H]1N` [Example 92, 3-amino-N-[(3R)-7-[(3S,4S)-3-amino-4-methoxypyrrolidin-1-yl]-8-fluoro-3,4-dihydro-2H-1-benzopyran-3-yl]-6-methylthieno[2,3-b]pyridine-2-carboxamide], the IC50 fell in the range of 1 to 50 nM. In the case of `Cc1ccc2c(N)c(C(=O)N[C@H]3CCc4nc(N5CCN[C@@H](C)C5)ccc4C3)sc2n1` (single isomer, unassigned) [Example 23-15], the IC50 lay within 1 to 50 nM. Take `Nc1c(C(=O)N[C@H]2COc3cc(N4CCNCC4)ccc3C2)sc2nc(C3CC3)sc12` [Example 45]: the 50% inhibitory concentration (IC50) fell in the range of 50 to 200 nM. Under `Cc1ccc2c(N)c(C(=O)N[C@H]3COc4cc([C@H]5CCNC[C@H]5O)ccc4C3)sc2n1` [Example 62, 3-amino-N-((R)-7-((3S,4R)-3-hydroxypiperidin-4-yl)chroman-3-yl)-6-methylthieno[2,3-b]pyridine-2-carboxamide] stands 1 to 50 nM; under `Cc1cc(C(F)F)c2c(N)c(C(=O)N[C@H]3COc4cc(N5CC6CNCC(C5)O6)ccc4C3)sc2n1` [Example 88, N-((3R)-7-(9-oxa-3,7-diazabicyclo[3.3.1]nonan-3-yl)chroman-3-yl)-3-amino-4-(difluoromethyl)-6-methylthieno[2,3-b]pyridine-2-carboxamide], 1 to 50 nM; under `Cc1ccc2c(N)c(C(=O)N[C@H]3COc4cc(N5C[C@H]6CNC[C@@H]6C5)ccc4C3)sc2n1` [Example 43, 3-amino-N-((R)-7-((3aR,6aR)-hexahydropyrrolo[3,4-c]pyrrol-2(1H)-yl)chroman-3-yl)-6-methylthieno[2,3-b]pyridine-2-carboxamide], 200 to 2000 nM.

With `O=C(N[C@H]1COc2cc(N3CC4CCC(C3)N4)ccc2C1)c1cnc2c(c1)CCCN2` [Example 50, N-((3R)-7-(3,8-diazabicyclo[3.2.1]octan-3-yl)chroman-3-yl)-5,6,7,8-tetrahydro-1,8-naphthyridine-3-carboxamide], the IC50 fell in the range of 50 to 200 nM. `O=C(N[C@@H]1COc2cc(N3CCNCC3)ccc2C1)c1cnc2c(ccn2C(F)F)c1` [Example 39, (S)-1-(difluoromethyl)-N-(7-(piperazin-1-yl)chroman-3-yl)-1H-pyrrolo[2,3-b]pyridine-5-carboxamide]: the IC50 was greater than 2000 nM. `Cc1ccc2c(N)c(C(=O)N[C@H]3COc4cc([C@@H]5CCNC[C@H]5F)ccc4C3)sc2n1` [Example 81, 3-amino-N-((R)-7-((3S,4S)-3-fluoropiperidin-4-yl)chroman-3-yl)-6-methylthieno[2,3-b]pyridine-2-carboxamide]: the IC50 is 1 to 50 nM. For the molecule `O=C(N[C@H]1COc2cc(N3CC4CCC(C3)N4)ccc2C1)c1cnc2c(c1)CCCO2` [Example 51, N-((3R)-7-(3,8-diazabicyclo[3.2.1]octan-3-yl)chroman-3-yl)-3,4-dihydro-2H-pyrano[2,3-b]pyridine-6-carboxamide], the IC50 lay in the range of 200 to 2000 nM. For `COC[C@H]1CN(c2ccc3c(n2)CC[C@H](NC(=O)c2sc4nc(C)ccc4c2N)C3)C[C@H]1N` (single isomer, unassigned) [Example 24-2], the IC50 was in the range of 50 to 200 nM. Turning to `Cc1ccc2c(N)c(C(=O)N[C@H]3CCc4nc(N5CC6CCC(C5)N6)ccc4C3)sc2n1` [Example 23-12, 3-amino-N-[(6S)-2-{3,8-diazabicyclo[3.2.1]octan-3-yl}-5,6,7,8-tetrahydroquinolin-6-yl]-6-methylthieno[2,3-b]pyridine-2-carboxamide], the IC50 fell in the range of 1 to 50 nM. With `CO[C@H]1CN(c2cc(F)c3c(c2F)OC[C@H](NC(=O)c2sc4nc(C)ccc4c2N)C3)C[C@@H]1N` [Example 87, 3-amino-N-((R)-7-((3S,4S)-3-amino-4-methoxypyrrolidin-1-yl)-5,8-difluorochroman-3-yl)-6-methylthieno[2,3-b]pyridine-2-carboxamide], the IC50 was 1 to 50 nM.

On to `Cc1ccc2c(N)c(C(=O)N[C@H]3COc4cc(N5CCNCC5)c(F)c(F)c4C3)sc2n1` [Example 61, (R)-3-amino-N-(5,6-difluoro-7-(piperazin-1-yl)chroman-3-yl)-6-methylthieno[2,3-b]pyridine-2-carboxamide], for which the IC50 is 1 to 50 nM.

With `O=C(N[C@H]1COc2cc(N3CCNCC3)ccc2C1)c1ccc(NCc2ccccc2)nc1` [Example 52, (R)-6-(benzylamino)-N-(7-(piperazin-1-yl)chroman-3-yl)nicotinamide], the IC50 is 200 to 2000 nM. Regarding `C[C@@H]1CCc2cc(C(=O)N[C@H]3COc4cc(N5CC6CCC(C5)N6)ccc4C3)cnc2N1` [Example 74, (7R)-N-((3R)-7-(3,8-diazabicyclo[3.2.1]octan-3-yl)chroman-3-yl)-7-methyl-5,6,7,8-tetrahydro-1,8-naphthyridine-3-carboxamide], the IC50 fell in the range of 50 to 200 nM.

Consider `Cc1ccc2c(N)c(C(=O)N[C@H]3COc4cc([C@@H]5CCNC[C@H]5O)ccc4C3)sc2n1` [Example 65, 3-amino-N-((R)-7-((3S,4S)-3-hydroxypiperidin-4-yl)chroman-3-yl)-6-methylthieno[2,3-b]pyridine-2-carboxamide], for which the IC50 was in the range of 1 to 50 nM. On to `O=C(N[C@H]1COc2c(F)c(N3CC4CCC(C3)N4)cc(F)c2C1)c1cnc2c(c1)[C@H]1C[C@H]1CN2` [Example 90, (1aR,7bS)-N-((3R)-7-(3,8-diazabicyclo[3.2.1]octan-3-yl)-5,8-difluorochroman-3-yl)-1a,2,3,7b-tetrahydro-1H-cyclopropa[c][1,8]naphthyridine-6-carboxamide], for which the IC50 is 200 to 2000 nM. Turning to `Cc1ccc2c(N)c(C(=O)N[C@H]3COc4cc([C@@H]5CCNCC5(F)F)ccc4C3)sc2n1` [Example 70, 3-amino-N-((R)-7-((S)-3,3-difluoropiperidin-4-yl)chroman-3-yl)-6-methylthieno[2,3-b]pyridine-2-carboxamide], the IC50 is 1 to 50 nM.

As for `Cc1ccc2c(N)c(C(=O)N[C@H]3COc4cc([C@@H]5CCNC[C@@H]5F)ccc4C3)sc2n1` [Example 83, 3-amino-N-((R)-7-((3R,4S)-3-fluoropiperidin-4-yl)chroman-3-yl)-6-methylthieno[2,3-b]pyridine-2-carboxamide], the IC50 fell in the range of 1 to 50 nM. In the case of `Cc1ccc2c(N)c(C(=O)N[C@H]3COc4c(F)c(N5CCNCC5)c(F)c(F)c4C3)sc2n1` [Example 35, 3-amino-6-methyl-N-[(3R)-5,6,8-trifluoro-7-(piperazin-1-yl)-3,4-dihydro-2H-1-benzopyran-3-yl]thieno[2,3-b]pyridine-2-carboxamide], the half-maximal inhibitory concentration (IC50) is 1 to 50 nM. On to `Cc1ccc2c(N)c(C(=O)N[C@H]3COc4c(F)c(N5CCNCC5)cc(F)c4C3)sc2n1` [Example 55, (R)-3-amino-N-(5,8-difluoro-7-(piperazin-1-yl)chroman-3-yl)-6-methylthieno[2,3-b]pyridine-2-carboxamide], for which the 50% inhibitory concentration (IC50) lay within 1 to 50 nM.
